Source: patent US4317775A (Hoffmann-La Roche Inc., priority 1980, dated 1982)
Where a name gives a salt, the structure may show the parent alone.

What was measured:
[1] = tested on: E. coli; assay: In vivo activity against systemic infection in mice, E. coli; conditions: in mg/kg
From the text: (§1) The PD50 is the protective dose for 50% of the animals treated against a challenge organism.

[2] = tested on: Klebsiella pneumoniae; assay: In vitro activity (MIC/MBC), Klebsiella pneumoniae; assay type: cell-based; conditions: for MBC: read-out: Minimum Inhibitory Concentration (MBC); for MIC: read-out: Minimum Inhibitory Concentration (MIC)
From the text: (§2) MIC is the Minimum Inhibitory Concentration. MBC is the Minimum Bactericidal Concentration.
(§3) Results reported in Table 3(a) are reported as MIC defined above and results reported in Table 3(b) are reported as MBC defined above.

[3] = tested on: Staphylococcus aureus; assay: In vitro activity (MIC/MBC), Staphylococcus aureus; assay type: cell-based; conditions: for MBC: read-out: Minimum Inhibitory Concentration (MBC); for MIC: read-out: Minimum Inhibitory Concentration (MIC)
From the text: as §2, §3

[4] = tested on: S. pyogenes; assay: In vivo activity against systemic infection in mice, S. pyogenes
From the text: as §1

[5] = tested on: P. aeruginosa; assay: In vivo activity against systemic infection in mice, P. aeruginosa
From the text: as §1

[6] = tested on: K. pneumoniae; assay: In vivo activity against systemic infection in mice, K. pneumoniae; conditions: in mg/kg
From the text: as §1

[7] = tested on: S. pneumoniae II; assay: In vivo activity against systemic infection in mice, S. pneumoniae II
From the text: as §1

[8] = tested on: Escherichia coli; assay: In vitro activity (MIC/MBC), Escherichia coli; assay type: cell-based; conditions: for MBC: read-out: Minimum Inhibitory Concentration (MBC); for MIC: read-out: Minimum Inhibitory Concentration (MIC)
From the text: as §2, §3

[9] = in vivo; conditions: mouse
[10] = tested on: S. pneumoniae I; assay: In vivo activity against systemic infection in mice, S. pneumoniae I
From the text: as §1

[11] = tested on: Streptococcus pyogenes; assay: In vitro activity (MIC/MBC), Streptococcus pyogenes; assay type: cell-based; conditions: for MBC: read-out: Minimum Inhibitory Concentration (MBC); for MIC: read-out: Minimum Inhibitory Concentration (MIC)
From the text: as §2, §3

[12] = tested on: Proteus vulgari; assay: In vitro activity (MIC/MBC), Proteus vulgari; assay type: cell-based
From the text: as §2, §3

[13] = tested on: P. mirabilis; assay: In vivo activity against systemic infection in mice, P. mirabilis; conditions: in mg/kg
From the text: as §1

[14] = tested on: Salmonella schottmuelleri; assay: In vitro activity (MIC/MBC), Salmonella schottmuelleri; assay type: cell-based; conditions: for MBC: Salmonella schottmuelleri, read-out: Minimum Inhibitory Concentration (MBC); for MIC: Salmonella, read-out: Minimum Inhibitory Concentration (MIC)
From the text: as §2, §3

[15] = tested on: S. typhosa; assay: In vivo activity against systemic infection in mice, S. typhosa
From the text: as §1

[16] = tested on: Streptococcus pneumoniae I; assay: In vitro activity (MIC/MBC), Streptococcus pneumoniae I; assay type: cell-based; conditions: for MBC: read-out: Minimum Inhibitory Concentration (MBC); for MIC: read-out: Minimum Inhibitory Concentration (MIC)
From the text: as §2, §3

[17] = tested on: Salmonella typhosa; assay: In vitro activity (MIC/MBC), Salmonella typhosa; assay type: cell-based; conditions: Salmonella enterica; for MBC: read-out: Minimum Inhibitory Concentration (MBC), MBC, Salmonella typhosa; for MIC: read-out: Minimum Inhibitory Concentration (MIC), Salmonella typhosa
From the text: as §2, §3

[18] = Stability in aqueous solution (percent retention); assay type: physicochemical; conditions: for Percent Retention: 6 hrs + 5° C., 192 hrs
Description: The stability of the compound was determined in 0.9% saline solution, 5% aqueous dextrose solution and in water, both at room temperature and/or 5° C.

[19] = tested on: S. schottmuelleri; assay: In vivo activity against systemic infection in mice, S. schottmuelleri
From the text: as §1

[20] = tested on: S. aureus; assay: In vivo activity against systemic infection in mice, S. aureus; conditions: subcutaneous, in mg/kg
From the text: as §1

[21] = 5% dextrose in water, 2.10 mg/ml, RT
[22] = 5% dextrose in water, 2.20 mg/ml, 5° C.
[23] = 5% dextrose in water, 30 mg/ml, RT
[24] = 5% dextrose in water, 33 mg/ml, 5° C.
[25] = aqueous concentrate, 155 mg/ml, 5° C.

In the case of `CC1(C)S[C@@H]2[C@H](NC(=O)[C@H](NC3CCCS3)c3ccc(O)cc3)C(=O)N2[C@H]1C(=O)O` (relative stereo) [Compound III, {2S-[2α,5α,6β(S*)]}-6-{[tetrahydro-2-thienylamino-(4-hydroxyphenyl)acetyl]amino}-3,3-dimethyl-7-oxo-4-thia-1-azabicyclo[3.2.0]heptane-2-carboxylic acid sodium salt], the PD50 ([1]; oral) is reported as 18.7, the PD50 ([1]; subcutaneous) is reported as 19.4 and the MBC [2] is reported as 1.11 µg/mL. The MIC [2] was 0.554 µg/mL, the MBC [3] was 0.138 µg/mL and the MIC [3] was 0.138 µg/mL. For the same molecule, the PD50 ([4]; oral) was 6.3 mg/kg, the PD50 ([4]; subcutaneous) was 4.1 mg/kg and the PD50 ([5]; oral) was > 142 mg/kg. For the same molecule, the PD50 ([5]; subcutaneous) was > 142 mg/kg, the PD50 ([6]; oral) was 15.5 and the PD50 ([6]; subcutaneous) was 5.3. It also gave a PD50 ([7]; oral) of 3.2 mg/kg, a PD50 ([7]; subcutaneous) of 3.2 mg/kg and an MBC [8] of 4.44 µg/mL. For the same molecule, the MIC [8] was 4.44 µg/mL, the LD50 ([9]; ip) was 668 mg/kg and the LD50 ([9]; po) was 558 mg/kg. The LD50 ([9]; sc) was 598 mg/kg, the PD50 ([10]; oral) was 4.7 mg/kg and the PD50 ([10]; subcutaneous) was 2.5 mg/kg. The MBC [11] was > 8.88 µg/mL, the MIC [11] was 0.554 µg/mL and the MBC ([12]; MBC, read-out: Minimum Inhibitory Concentration (MBC)) was 0.554 µg/mL. It also gave an MIC ([12]; read-out: Minimum Inhibitory Concentration (MIC)) of 0.554 µg/mL, a PD50 ([13]; oral) of 3.8 and a PD50 ([13]; subcutaneous) of 2.5.
`CC1(C)S[C@@H]2[C@H](NC(=O)[C@@H](c3ccc(O)cc3)N(C3CCCCO3)C3CCCCO3)C(=O)N2[C@H]1C(=O)O` (relative stereo) [Compound II, {2S-[2α,5α,6β(S*)]}-6-[bis(tetrahydro-2-H-pyran-2-yl)amino]{[(4-hydroxyphenyl)acetyl]amino}-3,3-dimethyl-7-oxo-4-thia-1-azabicyclo[3.2.0]heptane3-carboxylic acid sodium salt] gave a PD50 ([1]; oral) of 23, a PD50 ([1]; subcutaneous) of 18 and an MBC [14] of 0.98 µg/mL. It also gave an MIC [14] of 0.98 µg/mL, an MBC [2] of 0.98 µg/mL and an MIC [2] of 0.09 µg/mL. For the same molecule, the MBC [3] was 0.098 µg/mL, the MIC [3] was 0.098 µg/mL and the PD50 ([15]; oral) was 3.6 mg/kg. For the same molecule, the PD50 ([15]; subcutaneous) was 1.4 mg/kg, the PD50 ([4]; oral) was 1.9 mg/kg and the PD50 ([4]; subcutaneous) was 3.4 mg/kg. The MBC [16] was 0.049 µg/mL, the MIC [16] was 0.049 µg/mL and the PD50 ([6]; oral) was 8.6. For the same molecule, the PD50 ([6]; subcutaneous) was 5.7, the MBC [17] was 0.12 µg/mL and the MIC [17] was 0.12 µg/mL. For the same molecule, the remaining at 24 h ([18]; 0.9% saline, 2.20 mg/ml, 5° C.) was 100%, the remaining at 48 h ([18]; 0.9% saline, 2.20 mg/ml, 5° C.) was 100% and the remaining at 6 h ([18]; 0.9% saline, 2.25 mg/ml, RT) was 96%. For the same molecule, the “Percent Retention” value ([18]; 0.9% saline, 2.25 mg/ml, RT) was 98%, the remaining at 6 h ([18]; 0.9% saline, 2.30 mg/ml, RT) was 96% and the remaining at 24 h ([18]; 0.9% saline, 2.30 mg/ml, RT) was 91%. The remaining at 48 h ([18]; 0.9% saline, 2.30 mg/ml, RT) was 84%, the remaining at 6 h ([18]; 0.9% saline, 29.1 mg/ml, RT) was 97% and the “time for which 90% of potency was maintained” value ([18]; 0.9% saline, 0.2% solution, 5° C.) was ≥ 192 h. The “time for which 90% of potency was maintained” value ([18]; 0.9% saline, 0.2% solution, room temperature) was “about 24 hours”, the “time for which 90% of potency was maintained” value ([18]; 0.9% saline, 3% solution, 5° C.) was ≥ 192 h and the “time for which 90% of potency was maintained” value ([18]; 0.9% saline, 3% solution, room temperature) was “less than 24 hours”. For the same molecule, the remaining at 24 h ([18]; 0.9% saline, 31. mg/ml, 5° C.) was 100%, the remaining at 48 h ([18]; 0.9% saline, 31. mg/ml, 5° C.) was 100% and the remaining at 6 h ([18]; 0.9% saline, 34. mg/ml, RT) was 97%. For the same molecule, the remaining at 24 h ([18]; 0.9% saline, 34. mg/ml, RT) was 85%, the remaining at 48 h ([18]; 0.9% saline, 34. mg/ml, RT) was 76% and the “Percent Retention” value ([18]; 5% Dextrose in Water, 2.10 mg/ml, RT) was 73%. For the same molecule, the “Percent Retention” value ([18]; 5% Dextrose in Water, 31 mg/ml, RT) was 81%, the remaining at 6 h [18, 21] was 95% and the remaining at 24 h [18, 21] was 89%. It also gave a remaining at 48 h [18, 21] of 71%, a remaining at 24 h [18, 22] of 95% and a remaining at 48 h [18, 22] of 91%. It also gave a remaining at 6 h [18, 23] of 96%, a remaining at 24 h [18, 23] of 92% and a remaining at 48 h [18, 23] of 83%. For the same molecule, the remaining at 6 h ([18]; 5% dextrose in water, 31 mg/ml, RT) was 100%, the remaining at 24 h [18, 24] was 94% and the remaining at 48 h [18, 24] was 84%. The “time for which 90% of potency was maintained” value ([18]; 5% dextrose in water, 0.2% solution, 5° C.) was 48 h, the “time for which 90% of potency was maintained” value ([18]; 5% dextrose in water, 0.2% solution, room temperature) was “about 24 hours” and the “time for which 90% of potency was maintained” value ([18]; 5% dextrose in water, 3% solution, 5° C.) was “less than 48 hours”. The “time for which 90% of potency was maintained” value ([18]; 5% dextrose in water, 3% solution, room temperature) was “about 24 hours”, the remaining at 24 h [18, 25] was 100% and the remaining at 48 h [18, 25] was 100%. It also gave an MBC [8] of 3.94 µg/mL, an MIC [8] of 3.94 µg/mL and an LD50 ([9]; ip) of 6310 mg/kg. For the same molecule, the LD50 ([9]; po) was > 6310 mg/kg, the LD50 ([9]; sc) was 4460 mg/kg and the PD50 ([10]; oral) was 0.7 mg/kg. For the same molecule, the PD50 ([10]; subcutaneous) was 0.7 mg/kg, the MBC [11] was 6.31 µg/mL and the MIC [11] was 0.39 µg/mL. The PD50 ([19]; oral) was 1.9 mg/kg, the PD50 ([19]; subcutaneous) was 5.7 mg/kg and the PD50 [20] was 0.5.
`CC1(C)S[C@@H]2[C@H](NC(=O)[C@H](NC3CCCO3)c3ccc(O)cc3)C(=O)N2[C@H]1C(=O)O` (relative stereo) [Compound I, {2S-[2α,5α,6β(S*)]}-6-{[2-tetrahydrofuranylamino(4-hydroxyphenyl)acetyl]amino}-3,3-dimethyl-7-oxo-4-thia-1-azabicyclo[3.2.0]heptane-2-carboxylic acid sodium salt] gave a PD50 ([1]; oral) of 23.8, a PD50 ([1]; subcutaneous) of 8.2 and an MBC [14] of 1.42 µg/mL. The MIC [14] was 0.71 µg/mL, the MBC [2] was 0.71 µg/mL and the MIC [2] was 0.71 µg/mL. It also gave an MBC [3] of 0.177 µg/mL, an MIC [3] of 0.177 µg/mL and a PD50 ([15]; oral) of 8 mg/kg. It also gave a PD50 ([15]; subcutaneous) of 7.3 mg/kg, a PD50 ([4]; oral) of 3.8 mg/kg and a PD50 ([4]; subcutaneous) of 7 mg/kg. For the same molecule, the MBC [16] was 0.022 µg/mL, the MIC [16] was 0.022 µg/mL and the PD50 ([6]; oral) was 9.9. For the same molecule, the PD50 ([6]; subcutaneous) was 3.8, the MBC [17] was 0.35 µg/mL and the MIC [17] was 0.35 µg/mL. For the same molecule, the MBC [8] was 5.69 µg/mL, the MIC [8] was 5.69 µg/mL and the LD50 ([9]; ip) was 3220 mg/kg. It also gave an LD50 ([9]; po) of 9100 mg/kg, an LD50 ([9]; sc) of 4550 mg/kg and a PD50 ([10]; oral) of 1.5 mg/kg. It also gave a PD50 ([10]; subcutaneous) of 0.7 mg/kg, an MBC [11] of 2.84 µg/mL and an MIC [11] of 0.022 µg/mL. The PD50 ([19]; oral) was 5.4 mg/kg and the PD50 ([19]; subcutaneous) was 2.4 mg/kg.
